Results from patent US11680047B2, “Enhanced erythropoiesis and iron metabolism” (FibroGen, Inc., priority 2003, dated 2023).

Legend:
VCAM-1 [1] = test: TNF-α induced VCAM-1 expression in HUVEC; format: cell-based, human; details: TNF-α 1 ng/ml, 1 day
Description: Endothelial cell adhesiveness for lymphocytes occurs, in part, by endothelial cell expression of vascular cell adhesion molecule (VCAM)-1. VCAM-1 expression in endothelial cells is induced by various inflammatory cytokines, such as TNF-α. To investigate the effect of HIF prolyl hydroxylase inhibition on TNF-α induced VCAM-1 expression, HUVEC (human umbilical vein endothelial cells) were stimulated with TNF-α in the absence or presence of various concentrations of compound B or compound C for 1 day. VCAM expression was then measured.
Endothelial E-selectin belongs to the selectin family of cellular adhesion molecules mediating the initial attachment of leukocytes to vascular endothelial cells in inflammatory events. IL-1β, TNF-α, and lipopolysaccharides each induce the expression of E-selectin. (See, e.g., Bevilacqua et al. (1987) Proc Natl Acad Sci USA 84:9238-9242 and Bevilacqua and van Furth (1993) J Leukoc Biol 54:363-378.) To investigate the effect of HIF prolyl hydroxylase inhibition on TNF-α induced E-selectin expression, HUVECs were stimulated with 1 ng/ml TNF-α in the absence or presence of various concentrations of compound B or compound C for 1 day. E-selectin and VCAM expression were then measured.

VCAM-1 [2] = test: IL-1β induced VCAM-1 expression in HUVEC; format: cell-based, human; details: IL-1β 1 ng/ml, 1 day
Description: To investigate the effect of HIF prolyl hydroxylase inhibition on IL-1β induced VCAM-1 expression, HUVEC (human umbilical vein endothelial cells) were stimulated with IL-1β in the absence or presence of various concentrations of compound B or compound C for 1 day. VCAM expression was then measured.

rat model of ACD [3] = test: Rat model of ACD (PG-PS), Experimental Series 1; format: in vivo; details: anemic rats, 60 mg/kg PO
Description: Anemia of chronic disease (ACD) is associated with various inflammatory conditions, including arthritis, neoplastic disease, and other disorders associated with chronic inflammation. A rat model of ACD was used to examine the effects of HIF stabilization using methods and compounds of the present invention on treating anemia associated with chronic disease. In this animal model, ACD is induced in rats by peptidoglycan-polysaccharide polymers. (See, e.g., Sartor et al. (1989) Infection and Immunity 57:1177-1185.) In this model, animals develop severe, acute anemia in the initial stages, followed by moderately severe chronic microcytic anemia in later stages.
Female Lewis rats of approximately 160 grams were challenged with PG-PS 10S (Lee Laboratories, 15 μg/gm body weight, intra-peritoneal). PG-PS 10S contains purified peptidoglycan-polysaccharide polymers isolated from the cell wall of Streptococcus pyogenes, Group A, D58 strain. Arthritis and anemia were allowed to develop for 35 days. On day 35, blood samples (approximately 400 μl) were taken from the tail vein under general anesthesia (Isoflurane) for CBC and reticulocyte counts (performed by Quality Clinical Labs). Animals with a spun hematocrit level at or above 45% were considered non-anemic and were removed from the study.
On day 35 following PG-PS injection, anemic animals received vehicle alone or were treated with compound A (60 mg/kg, PO) for two consecutive days per week for two weeks. Automated complete blood counts (CBC) were measured on day 35 (see above), 39, 42, and 49; serum iron levels were measured on day 49.

healthy human volunteers = test: Erythropoiesis and iron status in healthy human volunteers; format: in vivo; details: human subjects; for soluble transferrin receptor levels, maximum response: day 21
Description: The effect of prolyl hydroxylase inhibition on erythropoiesis in human subjects was examined as follows. […] At various times following compound administration, blood was drawn for analysis of EPO, hemoglobin, hematocrit, red blood cell counts, soluble transferrin receptor, and serum ferritin levels.

NRAMP2 = test: Intestinal NRAMP2 mRNA in rats of ACD Series 2 (microarray); format: in vivo, rat
Description: At week 6 following administration of compound A in anemic animals (40 mg/kg, twice a week), microarray analysis was performed to examine expression of genes encoding proteins involved with iron transport and absorption in intestine. Microarray analysis was performed using methods described above, using The Rat Genome 230A array (Affymetirx), which represents all sequence in the Rat Unigene database build 99 (National Center for Biotechnology Information, Bethesda, Md.), including approximately 4,699 well-characterized rat genes and approximately 10,467 EST sequences and approximately 700 non-EST sequences.

rat model of ACD [4] = test: Rat model of ACD (PG-PS), Experimental Series 2; format: in vivo
Description: Female Lewis rats (approximately 150-200 gm) were injected with PG-PS (intra-peritoneal). Arthritis and anemia were allowed to develop for 28 days. Animals were administered compound A by oral gavage twice a week (Monday and Thursday) for six weeks, corresponding to days 28, 31, 35, 38, 42, 45, 49, 52, 56, 59, 63, 66, and 70 from PG-PS injection.
Whole blood was collected via the tail vein for CBC analysis on days 28, 42, 56, and 70. In addition, serum was collected on day 70 for iron binding analysis. CBC and iron binding analysis were performed by Quality Clinical Labs (Mountain View, Calif.).
Patients with anemia of chronic disease are clinically characterized by reduced plasma iron concentrations and transferrin saturation. The effect of the present compounds on serum iron and transferrin saturation in normal and anemic animals was determined. Using an animal model of anemia of chronic disease, anemia was induced in rats by IP injection of peptidoglycan-polysaccharide polymers, as described above. Arthritis and anemia were allowed to develop for 28 days. Animals were then treated with various concentrations of compound A, twice weekly, for 6 weeks. Serum iron levels and transferrin saturation were determined by Quality Clinical Labs.

[5] = anemic rats, twice a week for six weeks

## O=C(O)CNC(=O)c1ncc2cc(Oc3ccccc3)ccc2c1O [Compound B, [(4-Hydroxy-7-phenoxy-isoquinoline-3-carbonyl)-amino]-acetic acid]
VCAM-1 [1]
  inhibition of TNF-α induced VCAM-1 expression: does-dependent inhibition of TNF-α induced VCAM-1 expression
VCAM-1 [2]
  inhibition of IL-1β induced VCAM-1 expression: does-dependent inhibition of IL-1β induced VCAM-1 expression

## O=C(O)CNC(=O)c1nc(Cl)c2ccccc2c1O [Compound A, [(1-Chloro-4-hydroxy-isoquinoline-3-carbonyl)-amino]-acetic acid]
Rat model of ACD [3]; 5 days after initiation of treatment
  hematocrit levels: approximately 37%
Rat model of ACD [3]; as early as 5 days (day 39)
  hemoglobin levels: increased hemoglobin levels in anemic animals
Rat model of ACD [3]; day 39
  Reticulocyte levels: approximately 10 % of red cell counts
Rat model of ACD [3]; day 49
  hemoglobin levels: reaching a level comparable to control non-anemic animals
Rat model of ACD [3]; following a second dosing
  hematocrit levels: approximately 40%
Rat model of ACD [3]; from day 39
  red blood cell count: increased red blood cell count in anemic animals
Rat model of ACD [3]; from day 39, vs non-treated anemic animals
  mean corpuscular volume: increased mean corpuscular volume
Rat model of ACD [3]; vs non-treated anemic animals
  mean corpuscular hemoglobin levels: increased mean corpuscular hemoglobin levels
Healthy human volunteers; 20 mg/kg twice weekly or three-times per week
  red blood cell count: increased red blood cell count in human subjects
Healthy human volunteers; 2-times per week
  soluble transferrin receptor levels, maximum response: 35%
Healthy human volunteers; 3-times per week
  soluble transferrin receptor levels, maximum response: 31%
Healthy human volunteers; oral 20 mg/kg
  decrease of serum ferritin levels: approximately 46%
Healthy human volunteers; oral 20 mg/kg twice or three-times weekly
  Reticulocyte levels: > 1.7 % of red blood cells
Healthy human volunteers; twice weekly for three weeks
  hematocrit levels: greater than 46%
NRAMP2; anemic rats, 40 mg/kg twice a week, week 6
  intestinal expression of NRAMP2: increased expression of both NRAMP2 and sproutin in intestine
NRAMP2; control rats
  intestinal expression of mRNA for NRAMP2: increased intestinal expression of mRNA for NRAMP2
Rat model of ACD [4]; anemic (PG-PS) and non-anemic control (sham) rats, twice weekly, 6 weeks
  serum iron levels: increased serum iron levels
Rat model of ACD [4]; anemic rats, 10 mg/kg, 20 mg/kg or 40 mg/kg twice weekly
  hemoglobin levels: hemoglobin levels increased
Rat model of ACD [4]; anemic rats, from 2 weeks, over the 6 week period
  red blood cell counts: red blood cell counts were increased
Rat model of ACD [4]; anemic rats, oral gavage twice a week
  hematocrit levels: increased hematocrit levels
Rat model of ACD [4]; [5]
  mean corpuscular hemoglobin levels: reduction in the decrease in mean corpuscular hemoglobin levels
  mean corpuscular volume: reduction of the decrease in mean corpuscular volume
Rat model of ACD [4]; non-anemic rats, 40 mg/kg twice a week
  hemoglobin levels: approximately 110 % of that in non-treated control animals
Rat model of ACD [4]; non-challenged (non-anemic) rats, 40 mg/kg twice a week
  hematocrit levels: greater than 110 % of that in non-challenged non-treated animals
Rat model of ACD [4]; vs non-treated non-anemic and non-treated anemic rats, twice weekly, 6 weeks
  transferrin saturation: increased transferrin saturation
